Our source for the EC50 and IC50 values is patent US20250122166A1, “SUBSTITUTED N-((2-(2,6-DIOXOPIPERIDIN-3-YL)-1-OXOISOINDOLIN-4-YL)METHYL)BENZAMIDE ANALOGS AS MODULATORS OF CEREBLON PROTEIN” (ST. JUDE CHILDREN'S RESEARCH HOSPITAL, INC., priority 2021, published 2025).

As a reminder, the EC50 is the concentration that produces a half-maximal response. Read a low EC50 as higher potency in that assay. As usually defined, the IC50 is the concentration that gives 50% inhibition.

One experiment concerns MOLM-13 cells. As to the kind of experiment: Cell proliferation assay (Cell Titer-Glo, 72 h). Particulars: Homo sapiens, 72 h incubation, * = cytostatic 50%. It is filed as cell-based. As for the experimental part:
MOLM-13 cell line was purchased from the Leibniz Institute DSMZ (ACC 554). The cells were cultured according to recommendations in RPMI 1640 cell culture media with 20% FBS (DSMZ). Exponentially growing MOLM-13 cells were plated at 1250 cells per well in Corning 8804BC white 384-well assay plates and incubated overnight at 37° C. in a humidified 5% CO2 incubator. Compounds were transferred to the assay plate from a dose-response plate using a Pintool on a Biomek FXP Laboratory Automation Workstation (Beckman Coulter). Cytotoxicity was determined following 72 hours of incubation using Promega Cell Titer Glo reagent according to the manufacturer's recommendation. Luminescence was measured on an Envision plate reader (Perkin-Elmer).
Compounds were screened in human cancer cell lines and each cell line was cultured in the complete medium recommended by the vendor and seeded in Corning 8804BC white 384-well assay plates at density of 1250 cells per well for MOLM-13 cells. After overnight incubation at 37° C. in a humidified 5% CO2 incubator, cells were treated with compounds in dose-response format using a Pintool on a Biomek FXP Laboratory Automation Workstation (Beckman Coulter). After 72h incubation, cell proliferation was assessed using Cell Titer-Glo (CTG) luminescent cell viability assay (Promega) according to the manufacturer's instruction. Luminescence signal was measured using an Envision plate reader (Perkin-Elmer).

For the next experiment, the target named is 6XHis-CRBN-DDB1 protein (Homo sapiens (Human), UniProt Q96SW2). As to the kind of experiment: CRBN fluorescence polarization assay (competitive, Cy5-O-Len probe). The class given is binding. To be noted: 6XHis-CRBN-DDB1 200 nM, Cy5-O-Len probe 30 nM, 1 hour; mean of three determinations; read-out: CRBN FP (IC50). As for the experimental part:
In this competitive fluorescent polarization assay Cy5 conjugated lenalidomide analog (Cy5—O-Len)^1 was used as a fluorescent probe. 6XHis-CRBN-DDB1 protein (200 nM) and Cy5—O-Len probe (30 nM) were combined in 20 mM HEPES pH 7, 150 mM NaCl, 0.005% Tween-20 assay buffer. 20 μL of this assay cocktail was dispensed into wells of Corning 3821 black 384-well plates. Compounds were transferred to the assay plate from a dose-response plate using a Pintool on a Biomek FXP Laboratory Automation Workstation (Beckman Coulter). The plates were incubated in the dark for 1 hour at room temperature and then read on an Envision plate reader (PerkinElmer, Massachusetts, USA). IC50 values were determined using a proprietary software RISE (Robust Investigation of Screening Experiments), developed in house on the Pipeline Pilot platform (Biovia, v. 17.2.0). Data represent the mean of three independent determinations.
Background: Fluorescence polarisation rises when a labelled molecule tumbles more slowly, as on binding a larger partner.

As for `O=C1CCC(N2Cc3c(CNC(=O)c4cccc(C(F)F)c4)cccc3C2=O)C(=O)N1` (centres unmarked) [Compound 23, 3-(difluoromethyl)-N-((2-(2,6-dioxopiperidin-3-yl)-1-oxoisoindolin-4-yl)methyl)benzamide], the EC50 in the experiment with MOLM-13 cells is below 1000 nM. For the same molecule, the IC50 on 6XHis-CRBN-DDB1 protein lay in the range of 1000 to 10000 nM.
`O=C1CCC(N2Cc3c(CNC(=O)c4cccs4)cccc3C2=O)C(=O)N1` (centres unmarked) [Compound 27, N-((2-(2,6-dioxopiperidin-3-yl)-1-oxoisoindolin-4-yl)methyl)thiophene-2-carboxamide] showed an EC50 in the experiment with MOLM-13 cells above 10000 nM. Moreover, on 6XHis-CRBN-DDB1 protein, the IC50 is below 1000 nM.
Take `O=C1CCC(N2Cc3c(CNC(=O)c4ccccc4Cl)cccc3C2=O)C(=O)N1` (centres unmarked) [Compound 46, 2-chloro-N-((2-(2,6-dioxopiperidin-3-yl)-1-oxoisoindolin-4-yl)methyl)benzamide]: the EC50 in the experiment on MOLM-13 cells is below 1000 nM. The IC50 at 6XHis-CRBN-DDB1 protein was 1000 to 10000 nM.
The like results for `O=C1CCC(N2Cc3c(CNC(=O)c4cccc5cc[nH]c45)cccc3C2=O)C(=O)N1` (centres unmarked) [Compound 38, N-((2-(2,6-dioxopiperidin-3-yl)-1-oxoisoindolin-4-yl)methyl)-1H-indole-7-carboxamide] were, in that order, below 1000 nM and below 1000 nM.
In the experiment on MOLM-13 cells, `O=C1CCC(N2Cc3c(CNC(=O)c4ccc(OC(F)(F)F)cc4)cccc3C2=O)C(=O)N1` (centres unmarked) [Compound 34, N-((2-(2,6-dioxopiperidin-3-yl)-1-oxoisoindolin-4-yl)methyl)-4-(trifluoromethoxy)benzamide] had an EC50 below 1000 nM. Moreover, on 6XHis-CRBN-DDB1 protein, the IC50 lay in the range of 1000 to 10000 nM.
Take `O=C1CCC(N2Cc3c(CNC(=O)c4cccc(Cl)c4)cccc3C2=O)C(=O)N1` (centres unmarked) [Compound 3, 3-chloro-N-((2-(2,6-dioxopiperidin-3-yl)-1-oxoisoindolin-4-yl)methyl)benzamide]: the EC50 in the experiment on MOLM-13 cells was below 1000 nM. Also, at 6XHis-CRBN-DDB1 protein, the IC50 is below 1000 nM.
In the experiment with MOLM-13 cells, `COc1cccc(C(=O)NCc2cccc3c2CN(C2CCC(=O)NC2=O)C3=O)c1` (centres unmarked) [Compound 1, N-((2-(2,6-dioxopiperidin-3-yl)-1-oxoisoindolin-4-yl)methyl)-3-methoxybenzamide] registered a 50% effective concentration (EC50) below 1000 nM. For the same molecule, the IC50 on 6XHis-CRBN-DDB1 protein was 1000 to 10000 nM.
In the experiment on MOLM-13 cells, `O=C1CCC(N2Cc3c(CNC(=O)c4ccc(Cl)cc4Cl)cccc3C2=O)C(=O)N1` (centres unmarked) [Compound 28, 2,4-dichloro-N-((2-(2,6-dioxopiperidin-3-yl)-1-oxoisoindolin-4-yl)methyl)benzamide] registered an EC50 above 10000 nM.
Take `O=C1CCC(N2Cc3c(CNC(=O)c4ccc(C(F)(F)F)c(F)c4)cccc3C2=O)C(=O)N1` (centres unmarked) [Compound 16, N-((2-(2,6-dioxopiperidin-3-yl)-1-oxoisoindolin-4-yl)methyl)-3-fluoro-4-(trifluoromethyl)benzamide]: in the experiment on MOLM-13 cells, the EC50 was below 1000 nM. For the same molecule, the concentration for half-maximal inhibition (IC50) at 6XHis-CRBN-DDB1 protein is 1000 to 10000 nM.
Take `O=C1CCC(N2Cc3c(CNC(=O)c4cccc(OC(F)(F)F)c4)cccc3C2=O)C(=O)N1` (centres unmarked) [Compound 20, N-((2-(2,6-dioxopiperidin-3-yl)-1-oxoisoindolin-4-yl)methyl)-3-(trifluoromethoxy)benzamide]: in the experiment on MOLM-13 cells, the EC50 is below 1000 nM. For the same molecule, the IC50 at 6XHis-CRBN-DDB1 protein was in the range of 1000 to 10000 nM.
The like results for `O=C(Cc1ccc(O)cc1)NCc1cccc2c1CN(C1CCC(=O)NC1=O)C2=O` (centres unmarked) [Compound 40, N-((2-(2,6-dioxopiperidin-3-yl)-1-oxoisoindolin-4-yl)methyl)-2-(4-hydroxyphenyl)acetamide] were, in that order, below 1000 nM and below 1000 nM.
As to `O=C1CCC(N2Cc3c(CNC(=O)c4ccc(C(F)(F)F)cc4)cccc3C2=O)C(=O)N1` (centres unmarked) [Compound 13, N-((2-(2,6-dioxopiperidin-3-yl)-1-oxoisoindolin-4-yl)methyl)-4-(trifluoromethyl)benzamide], the EC50 in the experiment with MOLM-13 cells was below 1000 nM. In addition, the IC50 on 6XHis-CRBN-DDB1 protein fell in the range of 1000 to 10000 nM.
`O=C1CCC(N2Cc3c(CNC(=O)c4ccc(-c5ccc(Cl)cc5)o4)cccc3C2=O)C(=O)N1` (centres unmarked) [Compound 44, 5-(4-chlorophenyl)-N-((2-(2,6-dioxopiperidin-3-yl)-1-oxoisoindolin-4-yl)methyl)furan-2-carboxamide] showed a 50% effective concentration (EC50) with MOLM-13 cells below 1000 nM. The IC50 on 6XHis-CRBN-DDB1 protein was below 1000 nM.
In the experiment with MOLM-13 cells, `N#Cc1cccc(C(=O)NCc2cccc3c2CN(C2CCC(=O)NC2=O)C3=O)c1` (centres unmarked) [Compound 26, 3-cyano-N-((2-(2,6-dioxopiperidin-3-yl)-1-oxoisoindolin-4-yl)methyl)benzamide] returned an EC50 below 1000 nM. In addition, the IC50 at 6XHis-CRBN-DDB1 protein was below 1000 nM.
In turn, `O=C1CCC(N2Cc3c(CNC(=O)c4cccc5[nH]ccc45)cccc3C2=O)C(=O)N1` (centres unmarked) [Compound 39, N-((2-(2,6-dioxopiperidin-3-yl)-1-oxoisoindolin-4-yl)methyl)-1H-indole-4-carboxamide] yielded an EC50 in the experiment on MOLM-13 cells above 10000 nM. For the same molecule, the IC50 at 6XHis-CRBN-DDB1 protein is below 1000 nM.
Regarding `O=C1CCC(N2Cc3c(CNC(=O)c4ccccc4Nc4cccc(C(F)(F)F)c4)cccc3C2=O)C(=O)N1` (centres unmarked) [Compound 43, N-((2-(2,6-dioxopiperidin-3-yl)-1-oxoisoindolin-4-yl)methyl)-2-((3-(trifluoromethyl)phenyl)amino)benzamide], the EC50 in the experiment with MOLM-13 cells was below 1000 nM. In addition, the IC50 on 6XHis-CRBN-DDB1 protein is 1000 to 10000 nM.
The molecule `O=C1CCC(N2Cc3c(CNC(=O)c4ccc(F)c(C(F)(F)F)c4)cccc3C2=O)C(=O)N1` (centres unmarked) [Compound 22, N-((2-(2,6-dioxopiperidin-3-yl)-1-oxoisoindolin-4-yl)methyl)-4-fluoro-3-(trifluoromethyl)benzamide] returned an EC50 in the experiment on MOLM-13 cells below 1000 nM. For the same molecule, the IC50 at 6XHis-CRBN-DDB1 protein was below 1000 nM.
In turn, `O=C1CCC(N2Cc3c(CNC(=O)c4ccc(F)cc4Cl)cccc3C2=O)C(=O)N1` (centres unmarked) [Compound 17, 2-chloro-N-((2-(2,6-dioxopiperidin-3-yl)-1-oxoisoindolin-4-yl)methyl)-4-fluorobenzamide] displayed an EC50 in the experiment with MOLM-13 cells below 1000 nM. Besides, the IC50 on 6XHis-CRBN-DDB1 protein fell in the range of 1000 to 10000 nM.
On to `O=C1CCC(N2Cc3c(CNC(=O)c4ccc(Cl)c(C(F)(F)F)c4)cccc3C2=O)C(=O)N1` (centres unmarked) [Compound 21, 4-chloro-N-((2-(2,6-dioxopiperidin-3-yl)-1-oxoisoindolin-4-yl)methyl)-3-(trifluoromethyl)benzamide], for which the EC50 in the experiment on MOLM-13 cells is below 1000 nM.
Consider `O=C1CCC(N2Cc3c(CNC(=O)c4ccc(F)cc4)cccc3C2=O)C(=O)N1` (centres unmarked) [Compound 7, N-((2-(2,6-dioxopiperidin-3-yl)-1-oxoisoindolin-4-yl)methyl)-4-fluorobenzamide], for which the EC50 in the experiment on MOLM-13 cells was below 1000 nM. Moreover, on 6XHis-CRBN-DDB1 protein, the IC50 lay within 1000 to 10000 nM.
For `O=C1CCC(N2Cc3c(CNC(=O)c4ccc(Cl)c(F)c4)cccc3C2=O)C(=O)N1` (centres unmarked) [Compound 19, 4-chloro-N-((2-(2,6-dioxopiperidin-3-yl)-1-oxoisoindolin-4-yl)methyl)-3-fluorobenzamide], in the experiment on MOLM-13 cells, the EC50 is below 1000 nM. Moreover, the IC50 at 6XHis-CRBN-DDB1 protein was 1000 to 10000 nM.
As to `O=C1CCC(N2Cc3c(CNC(=O)c4ccc(Br)cc4)cccc3C2=O)C(=O)N1` (centres unmarked) [Compound 18, 4-bromo-N-((2-(2,6-dioxopiperidin-3-yl)-1-oxoisoindolin-4-yl)methyl)benzamide], the EC50 with MOLM-13 cells is below 1000 nM.
Still for that read-out and setting: in the case of `O=C1CCC(N2Cc3c(CNC(=O)c4ccc(Cl)c(Cl)c4)cccc3C2=O)C(=O)N1` (centres unmarked) [Compound 14, 3,4-dichloro-N-((2-(2,6-dioxopiperidin-3-yl)-1-oxoisoindolin-4-yl)methyl)benzamide] it was below 1000 nM; in that of `Cc1ccc(C(=O)NCc2cccc3c2CN(C2CCC(=O)NC2=O)C3=O)cc1` (centres unmarked) [Compound 11, N-((2-(2,6-dioxopiperidin-3-yl)-1-oxoisoindolin-4-yl)methyl)-4-methylbenzamide], 1000 to 10000 nM; in that of `O=C1CCC(N2Cc3c(CNC(=O)c4cccnc4)cccc3C2=O)C(=O)N1` (centres unmarked) [Compound 8, N-((2-(2,6-dioxopiperidin-3-yl)-1-oxoisoindolin-4-yl)methyl)nicotinamide], above 10000 nM.
As to `O=C1CCC(N2Cc3c(CNC(=O)c4ccccc4)cccc3C2=O)C(=O)N1` (centres unmarked) [Compound 10, N-((2-(2,6-dioxopiperidin-3-yl)-1-oxoisoindolin-4-yl)methyl)benzamide], the EC50 in the experiment on MOLM-13 cells lay within 1000 to 10000 nM.
The same measure, in the same setting: the figure for `O=C1CCC(N2Cc3c(CNC(=O)c4ccco4)cccc3C2=O)C(=O)N1` (centres unmarked) [Compound 2, N-((2-(2,6-dioxopiperidin-3-yl)-1-oxoisoindolin-4-yl)methyl)furan-2-carboxamide] is above 10000 nM; for `O=C1CCC(N2Cc3c(CNC(=O)c4ccncc4)cccc3C2=O)C(=O)N1` (centres unmarked) [Compound 6, N-((2-(2,6-dioxopiperidin-3-yl)-1-oxoisoindolin-4-yl)methyl)isonicotinamide] it is above 10000 nM.
